Measurements taken from US4994488A, “Novel imidate insecticides” (ICI Americas Inc., priority 1989, dated 1991).

What was measured:
Assay type in all cases: in vivo
[1] = tested on: Tobacco Budworm [Heliothis virescens (Fabricius)], larvae; assay: Tobacco budworm contact test, larvae (TBW-C); conditions: percent of test compound in solution; second-instar larvae; 5 days
Experimental: (§1) The compounds in Table 1 above were tested for insecticidal activity using the following testing procedures. LC50 values, based on the results of these tests and calculated according to dosage-mortality curves, are expressed in Table 2.
(§2) Tobacco Budworm [Heliothis virescens (Fabricius)]
(a) Contact: Test compounds were diluted in a 50--50 acetonewater solution. Cotton (Gossypium sp.) cotyledons were immersed in the test solutions for 2-3 seconds and placed on a wire screen to dry. The dried leaves were placed in petri dishes containing a moistened piece of filter paper and infested with 5 second-instar tobacco budworm larvae. The dishes were placed in a high humidity chamber for 5 days, and percent mortality of the larvae recorded. Test concentrations ranged from 0.1% downward. The LC-50 values are expressed below in Table 2 under the heading "TBW-C" in terms of percent of the test compound in the solution.

[2] = tested on: two-spotted mite [Tetranychus urticae (Koch)], adults; assay: Two-spotted mite acaricidal test, adults (2SM-A); conditions: percent of test compound in solution, 5-7 days
Experimental: as §1
(§3) Acaricidal Evaluation Test
(§4) The two-spotted mite (2SM) [Tetranychus urticae (Koch)]was employed in tests for miticides. The test procedure was as follows:
(§5) Pinto bean plants (Phaseolus sp.), approximately 10 cm tall, were transplanted into sandy loam soil in small cups and thoroughly infested with two-spotted mites of mixed ages and sexes. Twenty-four hours later the infested plants were inverted and dipped for 2-3 seconds in 50--50 acetone-water solutions of the test compound. Treated plants were held in the greenhouse, and 5-7 days later mortality was determined for both adult mites and the nymphs hatching from eggs which were on the plants at the time of treatment. Test concentrations ranged from 0.05% downward. The LC-50 value is expressed below in Table 2 under the headings "2SM-A" (i.e., adults) and "2SM-E" (i.e. eggs) in terms of percent concentration of the test compound in the solution.

[3] = tested on: Western Spotted Cucumber Beetle Larvae [Diabrotica undecimpunctata undecimpunctata (Mannherheim)]; assay: Western spotted cucumber beetle larvae soil test (Diabrotica); conditions: ppm of test compound in the soil
Experimental: as §1
Western Spotted Cucumber Beetle Larvae[Diabrotica undecimpunctata undecimpunctata (Mannherheim)]
Ten grams of moist potting soil was placed in a plastic cup. The test compound was dissolved in acetone. A 0.05 ml aliquot of the test sample, diluted to the desired concentration, was added to the soil. The cup was capped and the soil was mixed on a vortex mixer for approximately 15 seconds. An indentation was made on the surface of the soil and approximately 50 Diabrotica eggs were added. The eggs were covered with soil and maintained at room temperature (approximately 70° F. or 21° C.). Four days later a section of Romaine lettuce (Latuca sativa) leaf was placed in the treated cups. One week later the cups were examined for live larvae. TEst concentrations ranged from 25 ppm downward. The LC-50 value is expressed below in Table 2 under the heading "Diabrotica" in terms of ppm of the test compound in the soil.

[4] = tested on: two-spotted mite [Tetranychus urticae (Koch)], eggs; assay: Two-spotted mite acaricidal test, eggs (2SM-E); conditions: percent of test compound in solution; nymphs hatching from eggs; 5-7 days
Experimental: as §1, §3, §4, §5

[5] = tested on: Tobacco Budworm [Heliothis virescens (Fabricius)], eggs; assay: Tobacco budworm egg test (TBW-E); conditions: percent of test compound in solution; 2-day old eggs
Experimental: (§6) The compounds in Table 1 above were tested for insecticidal activity using the following testing procedures.
as §2
(b). Eggs: Paper towel patches of 2-day old eggs of the tobacco budworm were dipped in acetone solutions of the test compound and placed in petri dishes containing a portion of larval rearing medium. […] Test concentrations ranged from 0.1% downward. The LC-50 value is expressed below in Table 2 under the heading "TBW-E" in terms of percent of the test compound in the solution.

[6] = tested on: Maize weevil (Sitophilus zeamais [Motschulsky]); assay: Maize weevil test on treated corn seeds; conditions: 0.01% test solution, 48 hours, about 25° C.
Experimental: Maize weevil (Sitophilus zeamais [Motschulsky])
Test compounds were diluted in a 50:50 acetone:water solution to a concentration of 0.01%. Four corn seeds [Zea mays, (L.)]which had been immersed in test solutions for 2-3 seconds and allowed to dry were placed in covered containers at a temperature of about 25° C. Mortality was recorded after 48 hours.

[7] = tested on: Cabbage Looper [Trichoplusia ni (Hubner)]; assay: Cabbage looper test (CL); conditions: percent of test compound in solution; second-instar larvae; 3-5 days
Experimental: as §6
Cabbage Looper [Trichoplusia ni (Hubner)]
The test compound was diluted in a 50--50 acetone-water solution. Cotyledons of hyzini squash (Calabacita abobrinha), approximately 1×1.5 inches, were immersed in the test solutions for 2-3 seconds and placed on a wire screen to dry. The dried leaves were placed in petri dished containing a moistened piece of filter paper and infested with 5 secondinstar cabbage looper larvae. The dished were placed in a high humidity chamber. Mortality of the larvae was recorded 3-5 days later. Test concentrations ranged from 0.1% downward. The LC-50 value is expressed below in Table 2 under the heading "CL" in terms of percent of the test compound in solution.

[8] = tested on: Beet Armyworm (Spodoptera exigua); assay: Beet armyworm test (BAW); conditions: percent of test compound in solution; second-instar larvae; five days
Experimental: as §1
Beet Armyworm (Spodoptera exigua)
Test compounds were diluted in a 50--50 acetone-water solution. Young leaves of sugar beets (Beta vulgaris) were immersed in the test solutions for 2-3 seconds and placed on a wire screen to dry. The dried leaves were placed in petri dishes containing a moistened filter paper and infested with five second-instar beet armyworm larvae. The dishes were placed in a high humidity chamber. Mortality of the larvae was recorded five days later. Test concentrations ranged from 0.1% downward. The LC-50 values are expressed below in Table 2 under the heading "BAW" in terms of percent of the test compound in solution.

[9] = tested on: Black Bean Aphid [Aphis fabae (Scop.)]; assay: Black bean aphid insecticidal test (BBA), foliar spray; conditions: percent of test compound in sprayed solution; 48 hours
Experimental: as §6

Structure (SMILES) | LC50 TBW C (contact) [1] [%] | LC50 2-SM A (adults) [2] [%] | LC50 Diabrotica [3] | LC50 2-SM E (eggs) [4] [%] | LC50 TBW E (eggs) [5] [%] | mortality at 0.01 % [6] [%] | LC50 CL [7] [%] | LC50 BAW [8] [%] | LC50 BBA [9] [%]
FC(F)(F)Oc1ccc(N=C(OCc2cccc(Oc3ccccc3)c2)C2CC2)cc1 [Compound 7] | 0.001 | 0.01 | 17 ppm (soil) | 0.01 | 0.05 | – | – | – | –
FC(F)(F)c1ccc(N=C(OCc2cccc(Oc3ccccc3)c2)C2CC2)c(Cl)c1 [Compound 8] | 0.1 | > 0.05 | 25 ppm (soil) | > 0.05 | > 0.1 | – | – | – | –
c1ccc(Oc2cccc(COC(=Nc3ccc4c(c3)OCO4)C3CC3)c2)cc1 [Compound 13] | – | > 0.05 | > 25 ppm (soil) | > 0.05 | > 0.01 | 50 | 0.002 | – | –
Clc1ccc(N=C(OCc2cccc(Oc3ccccc3)c2)C2CC2)cc1 [Compound 4, N-(4-Chlorophenyl)-O-(3-phenoxybenzyl)cyclopropylcarboximidate] | 0.006 | 0.01 | > 25 ppm (soil) | 0.05 | 0.1 | – | – | – | –
Fc1ccc(COC(=Nc2ccc(C(F)(F)F)cc2)C2CC2)cc1Oc1ccccc1 [Compound 15] | – | < 0.05 | > 25 ppm (soil) | < 0.05 | 0.017 | 50 | – | – | –
Fc1ccc(N=C(OCc2cccc(Oc3ccccc3)c2)C2CC2)cc1Cl [Compound 10] | – | > 0.05 | > 25 ppm (soil) | > 0.05 | 0.1 | – | – | – | –
CC1(C(=Nc2ccc(Cl)cc2)OCc2cccc(Oc3ccccc3)c2)CC1 [Compound 1] | 0.008 | > 0.05 | > 25 ppm (soil) | > 0.05 | 0.05 | – | – | 0.025 | –
CC1CC1C(=Nc1ccc(Cl)cc1)OCc1cccc(Oc2ccccc2)c1 (stereo not drawn) [Compound 2] | – | > 0.05 | > 25 ppm (soil) | > 0.05 | > 0.01 | – | – | – | –
Fc1ccc(COC(=Nc2ccc(C(F)(F)F)cc2)C2CC2)cc1Oc1ccc(Cl)cc1 [Compound 16] | – | > 0.05 | > 25 ppm (soil) | > 0.05 | 0.023 | – | – | – | –
FC(F)(F)c1cccc(N=C(OCc2cccc(Oc3ccccc3)c2)C2CC2)c1 [Compound 9] | – | > 0.05 | > 25 ppm (soil) | > 0.05 | > 0.1 | – | – | – | > 0.05
CC1(C)C(C(=Nc2ccc(F)c(Cl)c2)OCc2cccc(Oc3ccccc3)c2)C1(C)C [Compound 12] | – | 0.05 | > 25 ppm (soil) | 0.05 | > 0.01 | – | – | – | –
Clc1cccc(N=C(OCc2cccc(Oc3ccccc3)c2)C2CC2)c1 [Compound 3] | – | > 0.05 | > 25 ppm (soil) | > 0.05 | 0.1 | – | – | – | –
Fc1ccc(Oc2cccc(COC(=Nc3ccc(F)c(Cl)c3)C3CC3)c2)cc1 [Compound 11] | – | > 0.05 | > 25 ppm (soil) | > 0.05 | 0.05 | – | – | > 0.1 | –
Fc1ccc(N=C(OCc2cccc(Oc3ccccc3)c2)C2CC2)cc1 [Compound 5] | 0.01 | 0.05 | > 25 ppm (soil) | 0.05 | 0.08 | – | – | – | –
FC(F)(F)c1ccc(N=C(OCc2cccc(Oc3ccccc3)c2)C2CC2)cc1 [Compound 6] | 0.0015 | 0.01 | 25 ppm (soil) | > 0.05 | 0.025 | – | – | – | –
